{"source": "patent US11926604B2", "about": "“Myelination stimulator compounds, and methods of treatment” (priority 2018, dated 2024)", "key": {"[1]": {"tested_on": "hypoxia-exposed mouse", "experiment": "Chronic sublethal hypoxia model of PWMI, ventriculomegaly", "format": "in vivo", "design": "ventricle size: unit not given here", "excerpt": "FIG. 4. Depicts results of studies of myelination in an animal model of white matter injury. […] Dark-field, hemi-coronal sections at the same brain levels shown. Data shown are representative of 4 pups per treatment group. Arrow depict lateral ventricles. ac, anterior commisure. Note smaller ventricle size in the drug-treated pup. Scale bar=500 um.\nWe have initiated preclinical testing using the chronic sublethal hypoxia model of PWMI. Mice were reared under hypoxic or normoxic conditions from P2 to P12, as reported 64. At P2, litters were placed in a Plexiglas chamber in which ambient O2 levels are maintained at 10.0±0.3% O2. Normoxic animals were exposed to room air. To date we tested K261-0298 at 100 mg/kg, and mice were treated once per day from P2 to P12. At the end of the treatment period mice were examined for ventriculomegaly, as reported^64,65. […] Compared with normoxic controls^64,66, ventricle sizes in the drug-treated hypoxia animals were similar."}, "[2]": {"format": "physicochemical", "method": "(§1) Dose-range and toxicity studies in mice. In consultation with UF veterinary staff and the IACUC committee, toxicity studies were performed. […] Compounds were dissolved in 100% DMSO and diluted with 0.9% NaCl before injecting. The IP route (100-500 ul) was used to treat 8-10 week old female adults. We used females because in some studies they are more sensitive to toxins. Experiments were performed with the 2 compounds that had the largest effect on myelination in the brain slice cultures, including K261-0298 and K261-0310. Mice were treated with a single dose."}, "[3]": {"experiment": "Toxicokinetic sample collection, HPLC compound levels", "format": "in vivo, mouse", "conditions": "single i.p. injection of 100 mg/kg, mice", "method": "Toxicokinetic Sample Collection: After the above studies, compound kinetics were examined. Male and female mice at approximately 60 days of age were used (n=8 mice per sex). […] Samples were collected prior to dose and at 30 minutes, 2, 4, 8 and 24 hours after. Compound levels were determined by High Pressure Liquid Chromatography (HPLC) at UF."}, "[4]": {"tested_on": "C57BL/6 mice", "experiment": "Myelination in newborn mice in normoxia", "format": "in vivo, mouse", "excerpt": "FIG. 3. depicts results of studies of myelination in newborn mice in normoxia. FIG. 3. Myelin basic protein (MBP), O4 and O1 labeling of coronal forebrain at level of corpus callosum (cc) of newborn mice treated with vehicle or drug (K261-298) from P2 to P12 in room air. Data shown are representative of at least 5 pups per treatment group. cc, corpus callosum. Scale bar=100 um.\nAfter adult studies, pups were studied at developmental stages equivalent to preterm infants to assess effects on myelination, as reported by us^54. C57BL/6 mice were reared in room air from P2 to P12, and treated daily with the compound or vehicle. […] K261-0298 (100 mg/kg) was given by injection, as above."}, "[5]": {"tested_on": "mouse pups", "experiment": "Ten-day treatment of mouse pups from P2, safety and pulmonary hypertension", "format": "in vivo", "method": "In addition, we also treated mouse pups starting on day P2 for ten days with 100 mg/kg/day K261-0298 or vehicle. […] We also evaluated for possible pulmonary hypertension."}, "[6]": {"tested_on": "mice", "experiment": "Single-dose dose-range and toxicity study in mice", "format": "in vivo", "method": "as §1"}, "[7]": {"tested_on": "mouse brain slices", "experiment": "Myelination in brain slices (MBP, O1 immunostaining)", "format": "cell-based", "conditions": "brain slices incubated 5 days in culture, MBP labeling", "method": "FIG. 2. depicts the effect of compounds on myelination stimulation. FIG. 2. A. Myelin basic protein labeling (green) of brain slices incubated with compounds for 5 days in culture. *, p<0.05 vs vehicle. ANOVA. Data shown are representative at least 3 slices per treatment group per study, in at least 3 separate studies. (B) Vehicle, (C) K-261-0298. Note increased labeling.\nBefore undertaking in vivo testing, we assessed the ability of the lead compounds to promote OL development and myelination using mouse brain slices, as reported^62,63. Each compound and concentration was tested in triplicate, in at least three separate studies. Slices were collected at 1, 5, 9, or 13 days in vitro, fixed in 4% paraformaldehyde, and used for immunohistochemical staining."}, "[8]": {"tested_on": "mice", "experiment": "Multiday toxicity study, 10 days", "format": "in vivo, mouse", "conditions": "100 mg/kg for 10 days"}, "[9]": {"conditions": "diazoxide, basis for dose choice; cited from earlier work"}, "[10]": {"tested_on": "C57BL/6 mice", "conditions": "cited from earlier work"}, "[11]": {"tested_on": "model of PWMI", "conditions": "neonatal therapy; cited from earlier work"}, "[12]": {"conditions": "100 mg/kg daily P2 to P12, room air, n=6"}, "[13]": {"conditions": "pups from P2, ten days, 100 mg/kg/day"}}}
{"smiles": "CCOCCCNC(=O)CCC1=Nc2ccccc2S(=O)(=O)N1", "note": "[Compound K261-0298, 3-(1,1-dioxido-2H-benzo[e][1,2,4]thiadiazin-3-yl)-N-(3-ethoxypropyl)propanamide]", "values": [{"measurement": "ventricle sizes compared with normoxic controls", "setting": "[1]; drug-treated hypoxia animals", "value": "similar"}, {"measurement": "ventricle size", "setting": "[1]; hypoxia, 100 mg/kg once per day P2 to P12, n=4", "value": "0.0054+/−0.00013"}, {"measurement": "ventriculomegaly vs. vehicle", "setting": "[1]; hypoxia, 100 mg/kg once per day P2 to P12, p<0.03, 100 mg/kg", "value": "marked reduction in ventriculomegaly"}, {"measurement": "solubility behaviour in dosing solution", "setting": "[2]", "value": "more favorable solubility properties"}, {"measurement": "half-life", "setting": "[3]; both sexes, mouse, in vivo, ip, read-out: circulating half-life (converted)", "value": 2.2, "unit": "h"}, {"measurement": "peak drug levels", "setting": "[3]", "value": "21.5 ± 2.3", "unit": "µM"}, {"measurement": "decrease in O4 labeling vs. vehicle", "setting": "[4]; [12]", "value": "44+/−4%"}, {"measurement": "increase in MBP labeling vs. vehicle", "setting": "[4]; [12]", "value": "27+/−4%"}, {"measurement": "increase in O1 labeling vs. vehicle", "setting": "[4]; [12]", "value": "26+/−5%"}, {"measurement": "O1 labeling (FIG. 3)", "setting": "[4]; P2 to P12 in room air, p<0.02", "value": "increase in O1 labeling"}, {"measurement": "O4 expression (FIG. 3)", "setting": "[4]; P2 to P12 in room air, p<0.02", "value": "reduction in O4 expression"}, {"measurement": "bioavailability to the brain / blood-brain-barrier penetration", "setting": "[4]; inferred from changes in CNS myelination", "value": "suggests that there is bioavailability of the compound to the brain"}, {"measurement": "behavior or weight gain versus vehicle", "setting": "[5]; [13]", "value": "without any differences in behavior or weight gain"}, {"measurement": "survival", "setting": "[5]; [13]", "value": "all survived to the end of treatment"}, {"measurement": "pulmonary hypertension", "setting": "[5]; ten days of treatment in pups, juveniles, adults", "value": "does not appear that this compound induces pulmonary hypertension"}, {"measurement": "tolerated single dose", "setting": "[6]; IP, 8-10 week old female mice", "value": "up to 400 mg/kg"}, {"measurement": "myelination in vitro", "setting": "[7]", "value": "stimulates myelination in vitro"}, {"measurement": "adverse effects on animal behavior or weight", "setting": "[8]", "value": "no adverse effects on animal behavior or weight loss"}, {"measurement": "histopathological analysis of major organs", "setting": "[8]", "value": "did not reveal evidence of damage in any major organs"}, {"measurement": "gross necropsy", "setting": "[8]; 5 treated mice", "value": "no gross malformations were observed"}]}
{"smiles": "CC1=NS(=O)(=O)c2cc(Cl)ccc2N1", "note": "[diazoxide]", "values": [{"measurement": "LD50", "setting": "[9]", "value": "265 to 392", "unit": "mg/kg"}, {"measurement": "myelination in room air (earlier diazoxide studies)", "setting": "[10]", "value": "increased myelination"}, {"measurement": "myelination", "setting": "[11]", "value": "markedly improves myelination"}, {"measurement": "neurocognitive function", "setting": "[11]", "value": "improves neurocognitive function"}, {"measurement": "ventriculomegaly", "setting": "[11]", "value": "reduces ventriculomegaly"}]}
{"smiles": "CC(=O)c1ccc(N2CCN(C(=O)CCC3=Nc4ccccc4S(=O)(=O)N3)CC2)cc1", "note": "[Compound K261-0310, 1-(4-(4-acetylphenyl)piperazin-1-yl)-3-(1,1-dioxido-2H-benzo[e][1,2,4]thiadiazin-3-yl)propan-1-one]", "values": [{"measurement": "solubility behaviour in dosing solution", "setting": "[2]", "value": "precipitated out of solution at higher concentrations"}, {"measurement": "adverse effects at behavioral or gross necropsy levels", "setting": "[6]; mouse, in vivo, ip, 50 mg/kg", "value": "no adverse effects observed"}]}
